Assay results as given in patent publication US9568466B2, “In vitro assay for predicting renal proximal tubular cell toxicity” (priority 2012, dated 2017).

tested on: renal proximal tubule; assay: not given; conditions: in vivo; cited from earlier work

Compound | nephrotoxicity in humans / direct damage of the renal proximal tubule
NC[C@H]1O[C@H](O[C@H]2[C@H](O)[C@@H](O[C@H]3O[C@H](CO)[C@@H](O)[C@H](N)[C@H]3O)[C@H](N)C[C@@H]2N)[C@H](N)C[C@@H]1O [Compound 2, Tobramycin] | nephrotoxic in humans and damage directly the renal proximal tubule
CO[C@H]1/C=C/O[C@@]2(C)Oc3c(C)c(O)c4c(O)c(c(/C=N/N5CCN(C)CC5)c(O)c4c3C2=O)NC(=O)/C(C)=C\C=C\[C@H](C)[C@H](O)[C@@H](C)[C@@H](O)[C@@H](C)[C@H](OC(C)=O)[C@@H]1C [Compound 3, Rifampicin] | nephrotoxic in humans and damage directly the renal proximal tubule
COc1ccc(C[C@H](N)C(=O)N[C@H]2[C@@H](O)[C@H](n3cnc4c(N(C)C)ncnc43)O[C@@H]2CO)cc1 [Compound 5, Puromycin] | nephrotoxic in humans and damage directly the renal proximal tubule
CC(=O)OCC1=C(C(=O)O)N2C(=O)[C@@H](NC(=O)CCC[C@@H](N)C(=O)O)[C@H]2SC1 [Compound 6, Cephalosporin C] | nephrotoxic in humans and damage directly the renal proximal tubule
O=c1[nH]cc(F)c(=O)[nH]1 [Compound 7, 5-Fluorouracil] | nephrotoxic in humans and damage directly the renal proximal tubule
O=P1(NCCCl)OCCCN1CCCl (stereo not shown) [Compound 9, Ifosfamide] | nephrotoxic in humans and damage directly the renal proximal tubule
C[n+]1ccc(-c2cc[n+](C)cc2)cc1 [Compound 10, Paraquat] | nephrotoxic in humans and damage directly the renal proximal tubule
[Ge+4].[O-2].[O-2] [Compound 15, Germanium(IV) oxide] | nephrotoxic in humans and damage directly the renal proximal tubule
[Cl][Au] [Compound 16, Gold(I) chloride] | nephrotoxic in humans and damage directly the renal proximal tubule
C=CC[C@@H]1/C=C(\C)C[C@H](C)C[C@H](OC)[C@H]2O[C@@](O)(C(=O)C(=O)N3CCCC[C@H]3C(=O)O[C@H](/C(C)=C/[C@@H]3CC[C@@H](O)[C@H](OC)C3)[C@H](C)[C@@H](O)CC1=O)[C@H](C)C[C@@H]2OC [Compound 19, Tacrolimus] | nephrotoxic in humans and damage directly the renal proximal tubule
CC1=C2C(=CO[C@H](C)[C@H]2C)C(O)=C(C(=O)O)C1=O [Compound 21, Citrinin] | nephrotoxic in humans and damage directly the renal proximal tubule
CCOc1ccc(NC(C)=O)cc1 [Compound 24, Phenacetin] | nephrotoxic in humans, but do not damage directly the renal proximal tubule
[Cl-].[Li+] [Compound 28, Lithium chloride] | nephrotoxic in humans, but do not damage directly the renal proximal tubule
Cl[C@H]1[C@H](Cl)[C@@H](Cl)[C@@H](Cl)[C@H](Cl)[C@H]1Cl [Compound 29, Lindane] | nephrotoxic in humans, but do not damage directly the renal proximal tubule
OCCO [Compound 30, Ethylene glycol] | nephrotoxic in humans, but do not damage directly the renal proximal tubule
CC(C)[C@H](N)C(=O)OCCOCn1cnc2c(=O)[nH]c(N)nc21 [Compound 31, Valacyclovir] | nephrotoxic in humans, but do not damage directly the renal proximal tubule
CCC[C@@H]1C[C@@H](C(=O)N[C@@H]([C@H]2O[C@H](SC)[C@H](O)[C@@H](O)[C@H]2O)[C@@H](C)O)N(C)C1 [Compound 32, Lincomycin] | nephrotoxic in humans, but do not damage directly the renal proximal tubule
NCC(=O)O [Compound 35, Glycine] | non-nephrotoxic in humans
C[C@@H]1C[C@H]2[C@@H]3CCC4=CC(=O)C=C[C@]4(C)[C@@]3(F)[C@@H](O)C[C@]2(C)[C@@]1(O)C(=O)CO [Compound 36, Dexamethasone] | non-nephrotoxic in humans
COc1ccc2[nH]cc(CCNC(C)=O)c2c1 [Compound 37, Melatonin] | non-nephrotoxic in humans
N[C@@H](Cc1ccc(O)c(O)c1)C(=O)O [Compound 38, Levodopa (DOPA)] | non-nephrotoxic in humans
N[C@@H](Cc1cc(I)c(Oc2ccc(O)c(I)c2)c(I)c1)C(=O)O [Compound 39, Triiodothyronine] | non-nephrotoxic in humans
Gentamicin | nephrotoxic in humans and damage directly the renal proximal tubule

tested on: human primary renal proximal tubular cells (HPTC); assay: HPTC exposed to test compound, nuclear staining and F-actin detection, morphology and cell numbers; conditions: HPTC isolated from fresh human kidney samples; 0.2 mg/ml; 16 hours

Compound | cell numbers (number of cell nuclei) | morphological changes (F-actin)
Gentamicin | decrease in cell numbers | morphological changes
